Experimental data published in patent US20240158446A1, “CYCLIC COMPOUND HAVING SELECTIVE INHIBITORY ACTION ON KRAS OVER HRAS AND NRAS” (CHUGAI SEIYAKU KABUSHIKI KAISHA, priority 2021, published 2024).
*1 amine or outer side, *2 acyl side, *3 side chain or, on linkers, in order; H or OH if unused. Where a SMILES comes first, the peptide text is derived from it. Bridges are numbered along the chain shown (N, C = ends). [ ]: non-standard residue; d: D form. The star is where a group is joined. X47 = CC(C)(C)CCN([C@@H](Cc1ccc(C(F)(F)F)cc1)C(=O)[*:2])[*:1]; hPhe(3-Cl-4-CF3) = N[C@@H](CCc1ccc(C(F)(F)F)c(Cl)c1)C(=O)O; X34 = Cc1ccc(C[C@@H](C(=O)[*:2])N(CCC(C)(C)C)[*:1])cc1; NPrPhe(4-CF3) = CCCN[C@@H](Cc1ccc(C(F)(F)F)cc1)C(=O)O; NEtPhe(4-CF3) = CCN[C@@H](Cc1ccc(C(F)(F)F)cc1)C(=O)O; X33 = C[C@@H]1CN([*:1])[C@@H]1C(=O)[*:2]; NMeGly(cPent) = CN[C@H](C(=O)O)C1CCCC1; X44 = CC1(C)CN([*:1])[C@@H]1C(=O)[*:2]; Aze(3S-Me) = C[C@H]1CN[C@@H]1C(=O)O; NMeF = CN[C@@H](Cc1ccccc1)C(=O)O; NMeD = CN[C@@H](CC(=O)O)C(=O)O; NMeL = CN[C@@H](CC(C)C)C(=O)O; hPip = O=C(O)[C@@H]1CCCCCN1; Pip = O=C(O)[C@@H]1CCCCN1; Morpholide = C1CN(*)CCO1; NMeA = CN[C@@H](C)C(=O)O; Ac5c = NC1(C(=O)O)CCCC1; Aze = O=C(O)[C@@H]1CCN1; Ac3c = NC1(C(=O)O)CC1; Aib = CC(C)(N)C(=O)O; NEtG = CCNCC(=O)O; Sar = CNCC(=O)O

Key:
[1] = tested on: human lung cancer strain NCI-H441;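 also: cell proliferation inhibition after four days measured by CellTiter-Glo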
[2] = molecular target: GDP-bound HRAS wild-type protein (Homo sapiens, UniProt P01112); experiment: Binding to HRAS by surface plasmon resonance (SPR), Single Cycle Kinetics; settings: SPR, GDP-bound HRAS wild-type protein vs GDP-bound KRAS wild-type protein
Chain of GDP-bound HRAS wild-type protein (P01112 whole entry): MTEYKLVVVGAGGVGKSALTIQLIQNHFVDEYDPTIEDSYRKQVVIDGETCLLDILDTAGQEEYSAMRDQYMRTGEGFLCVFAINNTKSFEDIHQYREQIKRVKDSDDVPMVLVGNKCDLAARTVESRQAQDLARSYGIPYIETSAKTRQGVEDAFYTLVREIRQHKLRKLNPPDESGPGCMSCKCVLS

[3] = molecular target: GDP-bound NRAS wild-type protein (Homo sapiens, UniProt P01111); experiment: Binding to NRAS by surface plasmon resonance (SPR), Single Cycle Kinetics; settings: SPR, GDP-bound NRAS wild-type protein vs GDP-bound KRAS wild-type protein
Chain of GDP-bound NRAS wild-type protein (P01111 whole entry): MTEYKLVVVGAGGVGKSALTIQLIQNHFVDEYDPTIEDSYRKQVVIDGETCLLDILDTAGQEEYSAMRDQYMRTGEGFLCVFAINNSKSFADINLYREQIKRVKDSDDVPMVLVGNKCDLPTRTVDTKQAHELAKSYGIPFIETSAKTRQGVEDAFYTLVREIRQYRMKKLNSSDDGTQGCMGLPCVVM

SMILES	IC50 [1] [nM]	HRAS/KRAS (ratio of KD value for HRAS to KD value for KRAS) [2]	NRAS/KRAS (ratio of KD value for NRAS to KD value for KRAS) [3]
CC[C@H](C)[C@@H]1NC(=O)[C@H](CC(C)C)N(C)C(=O)C[C@@H](C(=O)N2CCOCC2)N(C)C(=O)[C@H](C2CCCC2)N(C)C(=O)C2(CCCC2)NC(=O)[C@@H]2CCCN2C(=O)[C@H](CCc2ccc(C(F)(F)F)c(Cl)c2)NC(=O)CN(C)C(=O)[C@H](Cc2ccc(C)cc2)N(CCC(C)(C)C)C(=O)[C@@H]2CCN2C(=O)[C@H](C)N(C)C1=O [PP0087] ([NMeL]I[NMeA][Aze][X34][Sar][hPhe(3-Cl-4-CF3)]P[Ac5c][NMeGly(cPent)][NMeD]-Morpholide; lactam N-11)	24	C (A compound having a KD ratio of 0.1 or more and less than 3 is denoted as C)	C (A compound having a KD ratio of 0.1 or more and less than 3 is denoted as C)
CC[C@H](C)[C@@H]1NC(=O)[C@H](CC(C)C)N(C)C(=O)C[C@@H](C(=O)N2CCOCC2)N(C)C(=O)[C@H](C2CCCC2)N(C)C(=O)C2(CCCC2)NC(=O)[C@@H]2CCCN2C(=O)[C@H](CCc2ccc(C(F)(F)F)c(Cl)c2)NC(=O)CN(C)C(=O)[C@H](Cc2ccc(C(F)(F)F)cc2)N(CCC(C)(C)C)C(=O)[C@@H]2CCN2C(=O)[C@H](C)N(C)C1=O [PP0113] ([NMeL]I[NMeA][Aze][X47][Sar][hPhe(3-Cl-4-CF3)]P[Ac5c][NMeGly(cPent)][NMeD]-Morpholide; lactam N-11)	7.1	B (a compound having 3 or more and less than 10 is denoted as B)	C (A compound having a KD ratio of 0.1 or more and less than 3 is denoted as C)
CCCN1C(=O)CN(C)C(=O)[C@@H]2CCN2C(=O)[C@H]([C@@H](C)CC)NC(=O)[C@H](CC(C)C)N(C)C(=O)C[C@@H](C(=O)N2CCOCC2)N(C)C(=O)[C@H](C2CCCC2)N(C)C(=O)C2(CCCC2)NC(=O)[C@@H]2CCCN2C(=O)[C@H](CCc2ccc(C(F)(F)F)c(Cl)c2)NC(=O)CN(C)C(=O)[C@@H]1Cc1ccc(C(F)(F)F)cc1 [PP0158] ([NMeL]I[Aze][Sar][NPrPhe(4-CF3)][Sar][hPhe(3-Cl-4-CF3)]P[Ac5c][NMeGly(cPent)][NMeD]-Morpholide; lactam N-11)	15.4	B (a compound having 3 or more and less than 10 is denoted as B)	A (a compound having 10 or more and less than 20 is denoted as A)
CCCN1C(=O)[C@@H]2CCN2C(=O)[C@@H]2CCN2C(=O)[C@H]([C@@H](C)CC)NC(=O)[C@H](CC(C)C)N(C)C(=O)C[C@@H](C(=O)N2CCOCC2)N(C)C(=O)[C@H](C2CCCC2)N(C)C(=O)C2(CCCC2)NC(=O)[C@@H]2CCCN2C(=O)[C@H](CCc2ccc(C(F)(F)F)c(Cl)c2)NC(=O)CN(C)C(=O)[C@@H]1Cc1ccc(C(F)(F)F)cc1 [PP0168] ([NMeL]I[Aze][Aze][NPrPhe(4-CF3)][Sar][hPhe(3-Cl-4-CF3)]P[Ac5c][NMeGly(cPent)][NMeD]-Morpholide; lactam N-11)	26.6	B (a compound having 3 or more and less than 10 is denoted as B)	C (A compound having a KD ratio of 0.1 or more and less than 3 is denoted as C)
CCCN1C(=O)[C@@H]2CCN2C(=O)[C@H](Cc2ccccc2)N(C)C(=O)[C@H]([C@@H](C)CC)NC(=O)[C@H](CC(C)C)N(C)C(=O)C[C@@H](C(=O)N2CCOCC2)N(C)C(=O)[C@H](C2CCCC2)N(C)C(=O)C2(CCCC2)NC(=O)[C@@H]2CCCN2C(=O)[C@H](CCc2ccc(C(F)(F)F)c(Cl)c2)NC(=O)CN(C)C(=O)[C@@H]1Cc1ccc(C(F)(F)F)cc1 [PP0209] ([NMeL]I[NMeF][Aze][NPrPhe(4-CF3)][Sar][hPhe(3-Cl-4-CF3)]P[Ac5c][NMeGly(cPent)][NMeD]-Morpholide; lactam N-11)	569	C (A compound having a KD ratio of 0.1 or more and less than 3 is denoted as C)	C (A compound having a KD ratio of 0.1 or more and less than 3 is denoted as C)
CC[C@H](C)[C@@H]1NC(=O)[C@H](CC(C)C)N(C)C(=O)C[C@@H](C(=O)N2CCOCC2)N(C)C(=O)[C@H](C2CCCC2)N(C)C(=O)C2(CC2)NC(=O)[C@@H]2CCCN2C(=O)[C@H](CCc2ccc(C(F)(F)F)c(Cl)c2)NC(=O)CN(C)C(=O)[C@H](Cc2ccc(C(F)(F)F)cc2)N(CC)C(=O)CN(C)C(=O)CN(C)C1=O [PP0234] ([NMeL]I[Sar][Sar][NEtPhe(4-CF3)][Sar][hPhe(3-Cl-4-CF3)]P[Ac3c][NMeGly(cPent)][NMeD]-Morpholide; lactam N-11)	49.9	C (A compound having a KD ratio of 0.1 or more and less than 3 is denoted as C)	B (a compound having 3 or more and less than 10 is denoted as B)
CC[C@H](C)[C@@H]1NC(=O)[C@H](CC(C)C)N(C)C(=O)C[C@@H](C(=O)N2CCOCC2)N(C)C(=O)[C@H](C2CCCC2)N(C)C(=O)C(C)(C)NC(=O)[C@@H]2CCCN2C(=O)[C@H](CCc2ccc(C(F)(F)F)c(Cl)c2)NC(=O)CN(C)C(=O)[C@H](Cc2ccc(C(F)(F)F)cc2)N(CC)C(=O)CN(C)C(=O)CN(C)C1=O [PP0235] ([NMeL]I[Sar][Sar][NEtPhe(4-CF3)][Sar][hPhe(3-Cl-4-CF3)]P[Aib][NMeGly(cPent)][NMeD]-Morpholide; lactam N-11)	4.5	C (A compound having a KD ratio of 0.1 or more and less than 3 is denoted as C)	B (a compound having 3 or more and less than 10 is denoted as B)
CCCN1C(=O)CN(C)C(=O)[C@@H]2[C@H](C)CN2C(=O)[C@H]([C@@H](C)CC)NC(=O)[C@H](CC(C)C)N(C)C(=O)C[C@@H](C(=O)N2CCOCC2)N(C)C(=O)[C@H](C2CCCC2)N(C)C(=O)C2(CCCC2)NC(=O)[C@@H]2CCCN2C(=O)[C@H](CCc2ccc(C(F)(F)F)c(Cl)c2)NC(=O)CN(C)C(=O)[C@@H]1Cc1ccc(C(F)(F)F)cc1 [PP0257] ([NMeL]I[X33][Sar][NPrPhe(4-CF3)][Sar][hPhe(3-Cl-4-CF3)]P[Ac5c][NMeGly(cPent)][NMeD]-Morpholide; lactam N-11)	30.8	B (a compound having 3 or more and less than 10 is denoted as B)	B (a compound having 3 or more and less than 10 is denoted as B)
CCCN1C(=O)CN(C)C(=O)[C@@H]2[C@@H](C)CN2C(=O)[C@H]([C@@H](C)CC)NC(=O)[C@H](CC(C)C)N(C)C(=O)C[C@@H](C(=O)N2CCOCC2)N(C)C(=O)[C@H](C2CCCC2)N(C)C(=O)C2(CCCC2)NC(=O)[C@@H]2CCCN2C(=O)[C@H](CCc2ccc(C(F)(F)F)c(Cl)c2)NC(=O)CN(C)C(=O)[C@@H]1Cc1ccc(C(F)(F)F)cc1 [PP0258] ([NMeL]I[Aze(3S-Me)][Sar][NPrPhe(4-CF3)][Sar][hPhe(3-Cl-4-CF3)]P[Ac5c][NMeGly(cPent)][NMeD]-Morpholide; lactam N-11)	11.3	C (A compound having a KD ratio of 0.1 or more and less than 3 is denoted as C)	B (a compound having 3 or more and less than 10 is denoted as B)
CCCN1C(=O)[C@@H]2CCN2C(=O)[C@H]2N(CC2(C)C)C(=O)[C@H]([C@@H](C)CC)NC(=O)[C@H](CC(C)C)N(C)C(=O)C[C@@H](C(=O)N2CCOCC2)N(C)C(=O)[C@H](C2CCCC2)N(C)C(=O)C2(CCCC2)NC(=O)[C@@H]2CCCN2C(=O)[C@H](CCc2ccc(C(F)(F)F)c(Cl)c2)NC(=O)CN(C)C(=O)[C@@H]1Cc1ccc(C(F)(F)F)cc1 [PP0277] ([NMeL]I[X44][Aze][NPrPhe(4-CF3)][Sar][hPhe(3-Cl-4-CF3)]P[Ac5c][NMeGly(cPent)][NMeD]-Morpholide; lactam N-11)	6.7	C (A compound having a KD ratio of 0.1 or more and less than 3 is denoted as C)	C (A compound having a KD ratio of 0.1 or more and less than 3 is denoted as C)
CCCN1C(=O)CN(C)C(=O)CN(CC)C(=O)[C@H]([C@@H](C)CC)NC(=O)[C@H](CC(C)C)N(C)C(=O)C[C@@H](C(=O)N2CCOCC2)N(C)C(=O)[C@H](C2CCCC2)N(C)C(=O)C2(CCCC2)NC(=O)[C@@H]2CCCCN2C(=O)[C@H](CCc2ccc(C(F)(F)F)c(Cl)c2)NC(=O)CN(C)C(=O)[C@@H]1Cc1ccc(C(F)(F)F)cc1 [PP0297] ([NMeL]I[NEtG][Sar][NPrPhe(4-CF3)][Sar][hPhe(3-Cl-4-CF3)][Pip][Ac5c][NMeGly(cPent)][NMeD]-Morpholide; lactam N-11)	74.3	C (A compound having a KD ratio of 0.1 or more and less than 3 is denoted as C)	B (a compound having 3 or more and less than 10 is denoted as B)
CCCN1C(=O)CN(C)C(=O)[C@@H]2CCN2C(=O)[C@H]([C@@H](C)CC)NC(=O)[C@@H]2CCCCCN2C(=O)C[C@@H](C(=O)N2CCOCC2)N(C)C(=O)[C@H](C2CCCC2)N(C)C(=O)C2(CCCC2)NC(=O)[C@@H]2CCCN2C(=O)[C@H](CCc2ccc(C(F)(F)F)c(Cl)c2)NC(=O)CN(C)C(=O)[C@@H]1Cc1ccc(C(F)(F)F)cc1 [PP0302] ([hPip]I[Aze][Sar][NPrPhe(4-CF3)][Sar][hPhe(3-Cl-4-CF3)]P[Ac5c][NMeGly(cPent)][NMeD]-Morpholide; lactam N-11)	126	C (A compound having a KD ratio of 0.1 or more and less than 3 is denoted as C)	B (a compound having 3 or more and less than 10 is denoted as B)
